In patent US11607454B2, “Devices and processes for Cherenkov-activated nuclear-targeted photodynamic therapy” (UNIVERSITY HEALTH NETWORK, priority 2016, dated 2023):

Legend:
[1] = test system: Pancreatic cells (BxPC-3); assay: phospho-gamma H2AX immunofluorescence assay of DNA damage after 18 MV X-ray irradiation generating Cherenkov light; type: cell-based; details: BxPC-3 cells, 4 micrograms per ml, 6 h incubation, 10 Gy X-ray, read 30 minutes after irradiation, +/- 1 standard deviation
Experimental: Following preparation of the nuclear-targeted copolymer-photosensitizer micelles (NPs) as above, tests were carried out of the effect on pancreatic cancer cells in tissue culture (in vitro) of X-ray irradiation under conditions that generate Cherenkov light. Pancreatic cells (BxPC-3: ATCC, VA, USA) were selected since treatment of pancreatic cancer is one example of how the current invention might be applied to address an unmet clinical need for a minimally invasive therapy for this highly fatal disease where conventional treatments such as radiation or chemotherapy are inadequate.
Cells were incubated with NPs with water as the vehicle. […]
At 30 minutes after irradiation, the damage to DNA in the cells was measured using phospho-gamma H2AX immunofluorescence assay, similar to that used for example by Fraser et al. (2012). […] The fluorescence was imaged on a confocal fluorescence microscope where the red fluorescence (488+/−10 nm excitation, >505 nm detection) corresponding to DNA double strand breaks could be visualized on the […] DAPI fluorescence background (405+/−10 nm excitation, 460+/−25 nm detection) and the intensity quantified. The red fluorescence intensity counts were integrated over 10-18 cells for each treatment condition. […]

cells in vitro = details: conjugation to branched peptides (loligomers) with nuclear-targeting sequences; cited from earlier work

C1=Cc2nc1c(-c1ccccc1)c1nc(c(-c3ccccc3)c3ccc([nH]3)c(-c3ccccc3)c3ccc([nH]3)c2-c2ccccc2)C=C1 [TPP, tetraphenyl porphyrin]
Mean fluorescence intensity counts ([1]; Cherenkov blocked (blackout material)): 54.8 +/− 6.0 counts
Mean fluorescence intensity counts ([1]; Cherenkov unblocked): 49.5 +/− 6.7 counts

chlorine 6
reduction of the required dose of photosensitizer by nuclear localization (cells in vitro): greater than 100 fold
